What was measured:
[1] = system: phosphorylated ERK1/2 in A-375 tumor; experiment: Intratumor phosphorylated ERK inhibitory activity in malignant melanoma cell A-375 cancer-bearing rat; format: in vivo; details: phosphorylated ERK1/2 in A-375 tumor of nude rat, 25 mg/kg oral, 4 hrs after administration
Description: Human malignant melanoma cell A-375 (purchased from ATCC) was transplanted into 5-week-old nude rat (F344/N Jcl-mu/mu female (CLEA Japan, Inc.)) at 1.0×10^7 cells by subcutaneous injection. After 2-5 weeks from the transplantation, a test compound dissolved in 5% DMSO, 10% Cremophor, 20% PEG-400 and 65% distilled water was orally administered to rats having an engrafted tumor with a tumor volume of 200-800 mm^3 at a dose of 25 mg/kg body weight. After 4 hrs from the administration of the test compound, the tumor was collected under ether anesthesia and the tumor was homogenized in RIPA buffer (1% NP-40, 0.5% sodium deoxycholate, 1% SDS, 97.5% DPBS (GIBCO) with Protease Inhibitor Cocktail Set 3 (calbiochem) and Phosphatase Inhibitor Cocktail 2 (Sigma)). The protein in the tumor lysate was quantified using BCA Protein assay kit (Thermo), and the protein amount in the tumor lysate was adjusted to 1.25 μg/μL. 2×SDS sample buffer was added to the above-mentioned protein solution and the mixture was treated at 95° C. for 5 min.
Thereafter, SDS-PAGE was performed and the protein was transferred onto Sequi-Blot PVDF Membrane (Bio-Rad) by the Western blot method. The membrane was blocked with 5% (w/v) Block-Ace solution dissolved in phosphate buffered saline and reacted overnight with anti-phosphorylated ERK1/2 (Thr202/Tyr204) (Cell Signaling #9101) diluted 1000-fold with phosphate buffered saline containing 0.4% (w/v) Block-Ace. The membrane was washed with phosphate buffered saline containing 0.1% Tween20 (Wako Pure Chemical Industries, Ltd.), and reacted with HRP-labeled rabbit IgG polyclonal antibody (Cell Signaling #7074) diluted 1000-fold with phosphate buffered saline containing 0.4% Block-Ace for 1 hr at room temperature. […]
(Amersham Biosciences), and detected with luminoimage analyzer LAS-1000 (Fuji Film). The phosphorylated ERK1/2 protein inhibitory rate (%) of the test compound was calculated by the following formula. Inhibitory rate (%)=(1−(luminescence of test compound−blank)÷(luminescence of control group−blank))×100

[2] = system: MEK1/2 phosphorylation in human colon cancer cell HT-29; experiment: Colon cancer cell HT-29 intracellular MEK phosphorylation inhibitory activity in vitro; format: cell-based; details: HT-29 cells; for IC50: 2 hrs treatment, phosphorylated MEK1/2 Western blot; for inhibition at 0.5 µM: MEK1/2 protein phosphorylation, compound 0.5 μM, read-out: Inhibitory rate (%) at 0.5 μM
Description: 500 μL of a cell suspension of human colon cancer cell HT-29 (purchased from American Type Culture Collection (ATCC)) was plated in a 48-well plate (100,000 cells/well), and the cells were cultured overnight at 37° C. in the presence of 5% CO2, treated with a test compound (250 μL/well) diluted in 3-fold dilution series and cultured for 2 hrs. After 2 hrs, the culture medium containing the test compound was removed, and the cells were lysed with SDS sample buffer (100 μL/well) and heated at 95° C. for 5 min. Thereafter, the cells lysed with SDS sample buffer were applied to SDS-PAGE, and the protein was transferred onto Sequi-Blot™ PVDF Membrane (Bio-Rad) by the Western blot method. The PDVF membrane was blocked with a Block-Ace solution (Snow Brand Milk Products Co., Ltd) dissolved in phosphate buffered saline (MP Biochemicals) to 5% W/V, and reacted overnight with anti-phosphorylated MEK1/2 (Ser217/221) (Cell signaling #9121) diluted 1000-fold with phosphate buffered saline containing 0.4% Block-Ace. The membrane was washed with phosphate buffered saline containing 0.1% Tween 20 (Wako Pure Chemical Industries, Ltd.), and reacted at room temperature for 1 hr with HRP labeled rabbit IgG polyclonal antibody (Cell signaling #7074) diluted 1000-fold with phosphate buffered saline containing 0.4% Block-Ace. The membrane was washed in the same manner as above, chemical luminescence of a phosphorylated MEK1/2 protein labeled with the antibody, which was caused by ECL-plus Detection Reagent (Amersham bioscience), was detected by Luminescent Image Analyzer LAS-1000 (FUJIFILM Corporation). Taking the luminescence of the control group free of the test compound as 100%, the concentration (IC50 value) of the compound necessary for inhibiting the residual luminescence to 50% of the control group was calculated. In addition, MEK1/2 protein phosphorylation inhibitory rate (%) of the test compound at compound concentration 0.5 μM was calculated by the following formula. The results are shown in Table 2-B. Inhibitory rate (%)=(1−(luminescence of test compound−blank)÷(luminescence of control group−blank))×100

[3] = system: human colon cancer cell HT-29; experiment: Colon cancer cell HT-29 growth suppressive activity in vitro; format: cell-based
Description: 100 μL of a cell suspension (3,000 cells/well) of human colon cancer cell HT-29 (purchased from ATCC) was plated in a 96-well plate, and the cells were cultured at 37° C. in the presence of 5% CO2. The next day, 100 μL of culture medium containing each test compound diluted in 2-fold dilution was added, and the cells were cultured for 3 days. The culture medium containing the test compound was removed, and the cells were washed with phosphate buffered saline (MP Biochemicals). A 50% trichloroacetic acid solution was added to the final concentration of 10% (v/v), and the mixture was stood overnight at 4° C., whereby the cells were fixed to the plate. Then, a dye SRB 0.4% (w/v) solution (dissolved in 1% acetic acid) was added at 50 μl/well, whereby the cell protein was fixed and stained (Skehan et al., Journal Of National Cancer Institute, vol. 82, pp. 1107-1112, 1990). The cells were washed 3 times with 1% acetic acid solution (200 μL/well), and 100 μL of an extract (10 mM Tris buffer) was added to extract the dye. The absorbance at an absorption wavelength 550 nm was measured, and cell amount was measured as a protein amount. Taking the protein amount of the control group free of the test compound solution as 100%, the proportion of the residual protein amount of each treatment group was determined and the concentration of the compound necessary for suppressing the residual cell amount to 50% of the control (IC50 value) was calculated. In addition, cell proliferation inhibitory rate (%) of the test compound at compound concentration 10 μM was calculated by the following formula. The results are shown in Table 3-B. Inhibitory rate (%)=(1−(absorbance of test compound−blank)÷(absorbance of control group−blank))×100

SMILES | Inhibitory rate (%) [1] | IC50 [2] | inhibition at 0.5 µM [2] | IC50 ([3]; 72 h, HT-29 cells, 3 days culture, SRB staining) | inhibition at 10 µM ([3]; HT-29 cell proliferation, compound 10 μM, read-out: Inhibitory rate (%) at 10 μM)
CC(C)(C#N)c1cccc(C(=O)Nc2cccc(Oc3ccc4nc(NC(=O)C5CC5)sc4c3C#N)c2)c1Cl [Example 3, 2-chloro-N-[3-({7-cyano-2-[(cyclopropylcarbonyl)amino]-1,3-benzothiazol-6-yl}oxy)phenyl]-3-(1-cyano-1-methylethyl)benzamide] | 71% | < 300 nM | 86% | – | –
N#Cc1c(Oc2cccc(NC(=O)Cc3cccc(C(F)(F)F)c3)c2)ccc2nc(NC(=O)C3CC3)sc12 [Example 50, N-{7-cyano-6-[3-({[3-(trifluoromethyl)phenyl]acetyl}amino)phenoxy]-1,3-benzothiazol-2-yl}cyclopropanecarboxamide] | 76% | – | – | < 500 nM | 91%
N#Cc1c(Oc2ccc(F)c(NC(=O)Cc3cccc(C(F)(F)F)c3)c2)ccc2nc(NC(=O)C3CC3)sc12 [Example 53, N-{7-cyano-6-[4-fluoro-3-({[3-(trifluoromethyl)phenyl]acetyl}amino)phenoxy]-1,3-benzothiazol-2-yl}cyclopropanecarboxamide] | 88% | < 300 nM | 79% | – | –

— patent US8497274B2, “Heterocyclic compound and use thereof” (Takeda Pharmaceutical Company Limited, priority 2008, dated 2013)
